Values of other authors in patent US20260144768A1, “MODIFIED RELEASE GAMMA-HYDROXYBUTYRATE FORMULATIONS HAVING IMPROVED PHARMACOKINETICS” (Flamel Ireland Limited, priority 2022, published 2026).
Where two headings read alike, the source gives them in different places.

How the values were obtained:
plasma proteins = settings: GHB 3 mcg/mL to 300 mcg/mL
[1] = not given; remark: listed apart in the source
mouse = settings: 2-year study
rat [2] = settings: 2-year study
CYP1A2 = molecular target: T1, CYP1A2 (Homo sapiens, UniProt P05177); settings: up to 3 mM (378 mcg/mL)
T1 sequence (P05177 1-516): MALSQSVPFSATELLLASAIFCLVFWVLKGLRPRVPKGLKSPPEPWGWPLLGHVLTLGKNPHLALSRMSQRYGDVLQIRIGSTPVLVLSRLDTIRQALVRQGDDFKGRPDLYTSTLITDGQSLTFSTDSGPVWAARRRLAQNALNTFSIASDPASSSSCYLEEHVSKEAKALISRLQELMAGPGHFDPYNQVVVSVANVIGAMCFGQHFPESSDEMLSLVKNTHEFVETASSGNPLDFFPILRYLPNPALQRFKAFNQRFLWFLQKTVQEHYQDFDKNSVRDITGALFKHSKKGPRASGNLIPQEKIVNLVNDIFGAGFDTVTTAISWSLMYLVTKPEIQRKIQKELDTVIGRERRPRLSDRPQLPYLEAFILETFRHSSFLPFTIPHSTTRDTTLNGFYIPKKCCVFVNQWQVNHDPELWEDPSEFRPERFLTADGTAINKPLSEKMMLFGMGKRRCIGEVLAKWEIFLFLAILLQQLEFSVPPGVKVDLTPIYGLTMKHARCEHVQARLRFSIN

CYP2C9 = CYP2C9 (Homo sapiens, UniProt P11712); settings: up to 3 mM (378 mcg/mL)
CYP2C19 = CYP2C19 (Homo sapiens, UniProt P33261); settings: up to 3 mM (378 mcg/mL)
CYP2D6 = CYP2D6 (Homo sapiens, UniProt P10635); settings: up to 3 mM (378 mcg/mL)
CYP2E1 = CYP2E1 (Homo sapiens, UniProt P05181); settings: up to 3 mM (378 mcg/mL)
CYP3A = settings: up to 3 mM (378 mcg/mL)
[3] = 6 g per day (2 × 3 g) with ibuprofen 800 mg/dose four times per day
rats [4] = system: rats
bacterial gene mutation = settings: in vitro
mammalian cells = settings: in vitro
rat [5] = settings: in vivo
rats [6] = settings: 150, 350, or 1,000 mg/kg/day oral
pregnant rats = settings: 150, 350, or 1,000 mg/kg/day oral
pregnant rabbits = settings: 300, 600, or 1,200 mg/kg/day oral
rats [7] = system: rats; remark: listed apart in the source

CYP2E1, sequence (P05181 whole entry): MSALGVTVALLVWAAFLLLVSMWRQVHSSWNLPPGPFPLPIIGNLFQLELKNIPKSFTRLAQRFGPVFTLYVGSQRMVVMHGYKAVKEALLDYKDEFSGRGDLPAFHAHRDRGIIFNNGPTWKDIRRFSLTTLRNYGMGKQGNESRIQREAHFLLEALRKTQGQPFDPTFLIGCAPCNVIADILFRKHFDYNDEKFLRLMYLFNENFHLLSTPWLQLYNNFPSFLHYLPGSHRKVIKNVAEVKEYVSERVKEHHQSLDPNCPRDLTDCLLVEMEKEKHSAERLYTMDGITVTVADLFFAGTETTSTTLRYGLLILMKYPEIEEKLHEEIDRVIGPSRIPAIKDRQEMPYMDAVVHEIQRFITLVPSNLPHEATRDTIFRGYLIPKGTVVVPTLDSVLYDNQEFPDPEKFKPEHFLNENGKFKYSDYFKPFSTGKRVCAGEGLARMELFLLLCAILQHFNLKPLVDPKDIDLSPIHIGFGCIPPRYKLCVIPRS
CYP2D6, sequence (P10635 whole entry): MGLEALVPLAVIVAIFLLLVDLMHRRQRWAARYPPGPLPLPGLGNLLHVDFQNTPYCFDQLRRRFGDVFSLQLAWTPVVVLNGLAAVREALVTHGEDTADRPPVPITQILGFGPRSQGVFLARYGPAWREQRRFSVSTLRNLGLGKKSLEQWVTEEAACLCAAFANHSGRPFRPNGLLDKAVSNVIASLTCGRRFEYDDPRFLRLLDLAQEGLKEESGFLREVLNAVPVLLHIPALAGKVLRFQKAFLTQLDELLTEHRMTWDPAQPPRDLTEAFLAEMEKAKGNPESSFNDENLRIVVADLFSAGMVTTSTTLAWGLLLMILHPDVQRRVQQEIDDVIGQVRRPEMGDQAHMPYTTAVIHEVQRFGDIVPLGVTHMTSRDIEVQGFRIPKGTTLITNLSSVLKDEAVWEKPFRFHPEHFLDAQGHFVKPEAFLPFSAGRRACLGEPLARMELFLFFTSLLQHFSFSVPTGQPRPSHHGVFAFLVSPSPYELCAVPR
CYP2C19, sequence (P33261 whole entry): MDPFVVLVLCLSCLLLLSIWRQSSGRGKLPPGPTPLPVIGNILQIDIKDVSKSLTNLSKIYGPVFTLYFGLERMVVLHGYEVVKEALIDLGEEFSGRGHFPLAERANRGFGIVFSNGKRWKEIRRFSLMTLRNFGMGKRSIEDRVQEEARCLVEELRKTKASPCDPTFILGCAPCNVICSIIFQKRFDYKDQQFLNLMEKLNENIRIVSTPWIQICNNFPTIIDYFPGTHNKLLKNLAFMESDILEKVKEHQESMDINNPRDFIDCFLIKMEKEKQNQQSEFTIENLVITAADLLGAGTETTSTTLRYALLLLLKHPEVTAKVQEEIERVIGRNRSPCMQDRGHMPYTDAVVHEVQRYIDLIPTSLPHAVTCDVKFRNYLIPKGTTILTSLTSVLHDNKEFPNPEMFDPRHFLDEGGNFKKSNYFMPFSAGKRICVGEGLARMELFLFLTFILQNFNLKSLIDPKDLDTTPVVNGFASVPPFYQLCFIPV
CYP2C9, sequence (P11712 whole entry): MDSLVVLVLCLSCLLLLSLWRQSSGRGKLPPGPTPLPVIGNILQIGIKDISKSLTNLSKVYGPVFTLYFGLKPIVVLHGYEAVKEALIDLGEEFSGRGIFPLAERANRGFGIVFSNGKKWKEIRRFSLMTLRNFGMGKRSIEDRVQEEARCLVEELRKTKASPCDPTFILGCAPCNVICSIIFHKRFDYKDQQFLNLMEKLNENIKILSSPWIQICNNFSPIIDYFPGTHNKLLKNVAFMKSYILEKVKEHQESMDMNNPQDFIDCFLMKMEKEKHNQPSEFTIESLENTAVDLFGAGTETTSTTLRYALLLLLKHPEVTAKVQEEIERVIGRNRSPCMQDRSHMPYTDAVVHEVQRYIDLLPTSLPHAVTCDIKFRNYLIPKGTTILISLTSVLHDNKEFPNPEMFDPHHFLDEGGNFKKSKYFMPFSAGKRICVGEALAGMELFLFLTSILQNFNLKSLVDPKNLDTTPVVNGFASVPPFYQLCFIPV

O=C(O)CCCO [GHB, gamma-hydroxybutyrate]
Apparent volume of distribution (in vivo): 0.19 to 0.384 L/kg
Elimination half-life (in vivo): 30 to 60 min
Unchanged drug in human urine (within 6 to 8 hours after dosing): less than 5%
Bound to plasma proteins (plasma proteins): less than 1%
Apparent oral clearance ([1]; Child's Class A): 4.5 mL/min/kg
Mean t1/2 ([1]; Child's Class A): 32 min
Apparent oral clearance ([1]; Child's Class C): 4.1 mL/min/kg
Mean t1/2 ([1]; Child's Class C): 59 min
Mean t1/2 ([1]; control patients): 22 min
Apparent oral clearance ([1]; healthy adults): 9.1 mL/min/kg

O=C1CCCO1 [gamma-butyrolactone]
Carcinogenic activity (mouse): no clear evidence of carcinogenic activity
Carcinogenic activity (rat [2]): no clear evidence of carcinogenic activity

O=C([O-])CCCO.[Na+] [sodium oxybate, sodium 4-hydroxybutyrate]
Inhibition of CYP1A2 activity (CYP1A2): does not significantly inhibit
Inhibition of CYP2C9 activity (CYP2C9): does not significantly inhibit
Inhibition of CYP2C19 activity (CYP2C19): does not significantly inhibit
Inhibition of CYP2D6 activity (CYP2D6): does not significantly inhibit
Inhibition of CYP2E1 activity (CYP2E1): does not significantly inhibit
Inhibition of CYP3A activity (CYP3A): does not significantly inhibit
Systemic exposure to GHB on co-administration [3]: comparable
Plasma exposure (AUC) relative to humans at the MRHD of 9 g per night (rats [4]; highest dose tested): 2 times
Tumors (rats [4]; oral doses up to 1,000 mg/kg/day): no increase in tumors
Bacterial gene mutation (bacterial gene mutation): negative
Chromosomal aberration (mammalian cells): negative
Micronucleus (rat [5]): negative
Effects on fertility (rats [6]): no adverse effects on fertility
Developmental toxicity (pregnant rats): no clear evidence of developmental toxicity
Developmental toxicity (pregnant rabbits): no clear evidence of developmental toxicity
Mortality (rats [7]; 0, 100, 300, or 900 mg/kg/day, two highest doses): mortality was observed
Findings at the highest dose tested (rats [7]; 900 mg/kg/day): Reduced body weight gain in males and females and delayed sexual maturation in males
